Source: patent publication US8178873B2, “Solution processable organic semiconductors” (3M Innovative Properties Company, priority 2007, dated 2012)

What was measured:
[1] = Solubility measurement in n-butylbenzene; format: physicochemical; conditions: room temperature, weight percent based on total solution weight
Protocol: The solubility of the small molecule semiconductor was measured in n-butylbenzene at room temperature. The weight percent is based on the total solution weight. Typically, the solubility is lower in n-butylbenzene compared to halogenated solvents such as chloroform, chlorobenzene, and dichlorobenzene.

[2] = Differential Scanning Calorimetry, thermal stability; format: physicochemical; conditions: DSC, heated from 30 to 360° C. at 10° C. per minute
Protocol: Differential Scanning Calorimetry Measurement
Differential Scanning Calorimeter (DSC, TA Instruments 2920 from TA Instruments of New Castle, Del.) was used to measure phase transition and melting point of the small molecule semiconductors. Examples 1 to 8 were heated from 30 to 350° C. at a heating rate of 10° C. per minute. […] No decomposition was observed up to the 350° C. of the testing range. […] Example 9 was heated from 30 to 360° C. at a heating rate of 10° C. per minute. […] Example 9 started to decompose around 357° C.

Compound | Solubility in butyl benzene [1] [wt %] | melting point [°C] | Temperature at which decomposition started [2]
CC(C)[Si](C#Cc1c2ccc(-c3cccs3)cc2c(C#C[Si](C(C)C)(C(C)C)C(C)C)c2ccc(-c3cccs3)cc12)(C(C)C)C(C)C [Example 1, 2,6-Bis(thiophene-2-yl)-9,10-bis-[(triisopropylsilyl)ethynyl]anthracene] | 0.05 | 293 | 
Cc1ccc(-c2ccc3c(C#C[Si](C(C)C)(C(C)C)C(C)C)c4cc(-c5ccc(C)s5)ccc4c(C#C[Si](C(C)C)(C(C)C)C(C)C)c3c2)s1 [Example 2, 2,6-Bis(5-methyl-thiophene-2-yl)-9,10-bis-[(triisopropylsilyl)ethynyl]anthracene] | 0.05 | 333 | 
Cc1ccsc1-c1ccc2c(C#C[Si](C(C)C)(C(C)C)C(C)C)c3cc(-c4sccc4C)ccc3c(C#C[Si](C(C)C)(C(C)C)C(C)C)c2c1 [Example 3, 2,6-Bis(3-methyl-thiophene-2-yl)-9,10-bis-[(triisopropylsilyl)ethynyl]anthracene] | 2.3 | 237.6 | 
CCc1ccc(-c2ccc3c(C#C[Si](C(C)C)(C(C)C)C(C)C)c4cc(-c5ccc(CC)s5)ccc4c(C#C[Si](C(C)C)(C(C)C)C(C)C)c3c2)s1 [Example 4, 2,6-Bis(5-ethyl-thiophene-2-yl)-9,10-bis-[(triisopropylsilyl)ethynyl]anthracene] | 1.4 | 274.6 | 
CCCc1ccc(-c2ccc3c(C#C[Si](C(C)C)(C(C)C)C(C)C)c4cc(-c5ccc(CCC)s5)ccc4c(C#C[Si](C(C)C)(C(C)C)C(C)C)c3c2)s1 [Example 5, 2,6-Bis(5-propyl-thiophene-2-yl)-9,10-bis-[(triisopropylsilyl)ethynyl]anthracene] | 1.4 | 208.3 | 
CCCCCCc1ccc(-c2ccc3c(C#C[Si](C(C)C)(C(C)C)C(C)C)c4cc(-c5ccc(CCCCCC)s5)ccc4c(C#C[Si](C(C)C)(C(C)C)C(C)C)c3c2)s1 [Example 6, 2,6-Bis(5-hexyl-thiophene-2-yl)-9,10-bis-[(triisopropylsilyl)ethynyl]anthracene] | 2.5 | 190.3 | 
CCCCCCc1ccsc1-c1ccc2c(C#C[Si](C(C)C)(C(C)C)C(C)C)c3cc(-c4sccc4CCCCCC)ccc3c(C#C[Si](C(C)C)(C(C)C)C(C)C)c2c1 [Example 7, 2,6-Bis(3-hexyl-thiophene-2-yl)-9,10-bis-[(triisopropylsilyl)ethynyl]anthracene] | 4.2 | 141.8 | 
CC(C)[Si](C#Cc1c2ccc(-c3ccc(-c4cccs4)s3)cc2c(C#C[Si](C(C)C)(C(C)C)C(C)C)c2ccc(-c3ccc(-c4cccs4)s3)cc12)(C(C)C)C(C)C [Example 8, 2,6-Bis(2,2′-bithiophene-5-yl)-9,10-bis-[(triisopropylsilyl)ethynyl]anthracene] | 0.2 | 299 | 
CC(C)[Si](C#Cc1c2ccc(-c3ccc(C=O)s3)cc2c(C#C[Si](C(C)C)(C(C)C)C(C)C)c2ccc(-c3ccc(C=O)s3)cc12)(C(C)C)C(C)C [Example 9, 2,6-Bis(5-formyl-thiophene-2-yl)-9,10-bis-[(triisopropylsilyl)ethynyl]anthracene] | 0.04 | > 350 | around 357 °C
